Results as given in the supplement of paper PMC10307832.

How the values were obtained:
Test in all cases: relative viability (nuclei count vs DMSO), 5 days (fraction); higher = more cells survive
[1] = compound: O=C(Nc1c[nH]nc1-c1nc2ccc(CN3CCOCC3)cc2[nH]1)NC1CC1 [AT9283] + N=C(N)NC(=N)NCCc1ccccc1 [Phenformin] (partner 250 µM)
In short: (§1)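 Relative viability is defined as nuclei in treated wells over nuclei in vehicle wells. Duplicate plates were run and medians reported. Lung cancer cell lines in 1536-well plates were dosed by pin tool one day after seeding, with one drug or with a fixed anchor-drug dose plus five library-drug doses (not always all listed) in √10 steps, and nuclei were counted after 5 days.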

[2] = compound: C#Cc1cccc(Nc2ncnc3cc(OCCOC)c(OCCOC)cc23)c1 [Erlotinib] + CS(=O)(=O)N1CCN(Cc2cc3nc(-c4cccc5[nH]ncc45)nc(N4CCOCC4)c3s2)CC1 [Pictilisib] (partner 1 µM)
In short: as §1

[3] = compound: C#Cc1cccc(Nc2ncnc3cc(OCCOC)c(OCCOC)cc23)c1 [Erlotinib] + COc1cccc2cc(-c3nc([C@H]4CC[C@H](C(=O)O)CC4)n4ncnc(N)c34)[nH]c12 [OSI-027] (partner 0.5 µM)
In short: as §1

[4] = compound: O=C(Nc1c[nH]nc1-c1nc2ccc(CN3CCOCC3)cc2[nH]1)NC1CC1 [AT9283] + Cc1nc(NC(=O)N2CCC[C@H]2C(N)=O)sc1-c1ccnc(C(C)(C)C(F)(F)F)c1 [Alpelisib] (partner 2 µM)
In short: as §1

[5] = compound: C#Cc1cccc(Nc2ncnc3cc(OCCOC)c(OCCOC)cc23)c1 [Erlotinib] + Cc1nc(Nc2ncc(C(=O)Nc3c(C)cccc3Cl)s2)cc(N2CCN(CCO)CC2)n1 [Dasatinib] (partner 0.075 µM)
In short: as §1

Cell Line	relative viability ([1]; first compound 0.003 µM)	relative viability ([1]; first compound 0.03 µM)	relative viability ([1]; first compound 0.09487 µM)	relative viability ([1]; first compound 0.3 µM)	relative viability ([2]; first compound 0.02 µM)	relative viability ([2]; first compound 0.2 µM)	relative viability ([2]; first compound 0.6325 µM)	relative viability ([2]; first compound 2 µM)	relative viability ([3]; first compound 0.02 µM)	relative viability ([3]; first compound 0.2 µM)	relative viability ([3]; first compound 0.6325 µM)	relative viability ([3]; first compound 2 µM)	relative viability ([4]; first compound 0.003 µM)	relative viability ([4]; first compound 0.03 µM)	relative viability ([4]; first compound 0.09487 µM)	relative viability ([4]; first compound 0.3 µM)	relative viability ([5]; first compound 0.02 µM)	relative viability ([5]; first compound 0.2 µM)	relative viability ([5]; first compound 0.6325 µM)	relative viability ([5]; first compound 2 µM)
201T	0.445	0.419	0.345	0.285	0.694	0.651	0.692	0.664	0.804	0.862	0.846	0.664	1.02	1.08	0.525	0.445	0.646	0.548	0.543	0.541
A549	0.284	0.0777	0.0526	0.0427	0.471	0.529	0.582	0.406	–	–	–	–	0.973	0.0793	0.0636	0.068	–	–	–	–
A-427	0.334	0.178	0.133	0.145	0.826	0.682	0.829	0.76	0.449	0.537	0.468	0.482	1.04	1.01	0.209	0.176	0.832	0.687	0.842	0.676
ABC-1	0.231	0.159	0.233	0.192	0.656	0.71	0.847	0.589	0.582	0.386	0.361	0.346	0.957	0.238	0.269	0.355	0.564	0.491	0.506	0.565
BEN	0.259	0.253	0.256	0.176	0.466	0.483	0.683	0.514	0.334	0.301	0.317	0.304	0.969	0.987	0.23	0.245	0.318	0.381	0.413	0.3
CAL-12T	0.607	0.345	0.267	0.18	0.277	0.388	0.419	0.274	0.672	0.47	0.219	0.26	1.27	0.956	0.362	0.296	0.632	0.307	0.266	0.15
COR-L23	0.45	0.221	0.128	0.12	0.898	0.692	1.04	0.656	0.87	0.879	0.721	0.512	0.811	0.23	0.117	0.109	0.552	0.554	0.457	0.452
COR-L 105	0.513	0.2	0.303	0.223	0.406	0.342	0.351	0.332	0.595	0.262	0.365	0.27	1.49	0.342	0.278	0.333	0.302	0.173	0.182	0.122
Calu-6	–	–	–	–	0.94	0.856	0.913	0.817	–	–	–	–	0.986	0.23	0.26	0.246	–	–	–	–
ChaGo-K-1	0.476	0.341	0.235	0.204	0.472	0.659	1.05	0.508	0.695	0.55	0.549	0.434	–	–	–	–	0.626	0.512	0.636	0.5
EBC-1	–	–	–	–	0.382	0.322	0.309	0.259	–	–	–	–	0.961	0.291	0.176	0.177	–	–	–	–
EKVX	0.237	0.223	0.212	0.196	0.405	0.217	0.191	0.109	0.679	0.506	0.34	0.187	0.934	0.726	0.356	0.218	0.544	0.242	0.321	0.223
EMC-BAC-2	0.565	0.251	0.208	0.163	0.543	0.535	0.542	0.47	0.394	0.416	0.353	0.302	0.775	0.499	0.173	0.157	0.33	0.314	0.337	0.342
EPLC-272H	0.33	0.309	0.148	0.141	0.314	0.279	0.352	0.242	0.342	0.304	0.26	0.196	0.872	0.831	0.954	0.2	0.461	0.217	0.358	0.279
H3255	0.403	0.328	0.273	0.255	0.497	0.159	0.118	0.0937	0.638	0.345	0.207	0.202	0.652	0.68	0.443	0.178	0.322	0.347	0.167	0.278
HARA	0.499	0.261	0.208	0.0751	0.555	0.46	0.311	0.155	0.575	0.492	0.44	0.217	0.643	0.844	0.0814	0.0973	0.28	0.265	0.253	0.151
HCC-15	0.464	0.277	0.106	0.117	0.758	–	0.735	0.659	0.702	0.736	0.676	0.588	0.874	0.598	0.134	0.135	0.66	0.612	0.605	0.533
HCC-44	0.124	0.169	0.106	0.0704	0.662	0.696	0.752	0.523	0.505	0.571	0.412	0.435	0.784	0.795	0.2	0.116	–	–	–	–
